Columns and labels:
[1] = Heavy metal removal ability test in contaminated soil (ICP-MS), arsenic; details: for Arsenic (As) Adsorption amount: contaminated soil; for Arsenic (As) Adsorption rate: relative to EDTA control
Protocol: (§1) (1) Preparation of Soil Contaminated with Heavy Metal
(§2) After collecting and pulverizing uncontaminated soil, fine particles obtained by using a mesh were mixed with the aqueous heavy metal solution to prepare soil samples contaminated with heavy metals.
(§3) Each 3 ml of the prepared aqueous solution was added to a soil sample contaminated with heavy metals and mixed for 5 minutes.
(§4) 50 ml of distilled water was added to the contaminated soil mixed with the aqueous solution for restoring soil, stirred for 20 minutes, and settled for 1 hour, and a supernatant was prepared as a sample solution.
(§5) The prepared sample solution was analyzed for the heavy metal component using an Inductively Coupled Plasma Mass Spectrometer (ICP-MS) (Xseries™ 2, Thermo Fisher Scientific, UK).
(§6) Adsorption rate of heavy metals (%)=(Adsorption amount of Embodiment/Adsorption amount of Control)×100 Equation 1

[2] = Heavy metal removal ability test in contaminated soil around a factory (WAK-Me test kit); details: 1.0 wt % aqueous solution, colour comparison test kit
Protocol: The contaminated soil around the factory in the industrial complex was collected, pulverized, and meshed to prepare fine particles of soil samples.
Each 3 ml of aqueous solutions for restoring soil was added to soil samples and mixed for 5 minutes.

[3] = Heavy metal removal ability test in contaminated soil (ICP-MS), cadmium; details: for Cadmium (Cd) Adsorption amount: contaminated soil; for Cadmium (Cd) Adsorption rate: relative to EDTA control
Protocol: as §1, §2, §3, §4, §5, §6

[4] = Formaldehyde (formalin) removing ability test (GC); details: 2.0% formaldehyde solution, 3 molar equivalents of compound, room temperature; for Formaldehyde GC Area, 30 min: after 30 min; for Formaldehyde GC Area, 180 min: after 180 min; for Formaldehyde GC Area, Initial: initial state
[5] = test system: human skin; assay: Skin irritation test of active ingredient (patch method, CTFA guidelines); type: in vivo; details: 24 h patch; for Test result (number of subject) (+) / Test result (number of subject) (++) / Test result (number of subject) (±) / Test result (number of subject) (−): 20 people; for Test result (number of subject) (+): (+) apparent reddening; for Test result (number of subject) (++): (++) more reddened and swollen; for Test result (number of subject) (±): (±) slightly reddish; for Test result (number of subject) (−): (−) no erythema
Protocol: A filter paper disk was placed in an 8 mm diameter, 10 panels of pin chamber.
After 24 hours, the pin chamber was removed, and skin conditions were visually observed. The degree and grade for skin irritation were calculated according to the following Equation 2, and the results are shown in Table 4 below.
[Criteria for Skin Irritation]
(−): No erythema or particularly no symptoms; (±): slightly reddish than the periphery; (+): Apparent reddening than periphery; (++): More reddened and swollen than periphery.
[Grade for Skin Irritation]
Degree of irritation 0-0.1: Grade I (unstimulated);
Degree of irritation 0.11-0.3: Grade II (weakly stimulated);
Degree of irritation 0.31-0.5: Grade III (moderately stimulated);
Degree of irritation 0.51 or more: Grade IV (strongly stimulated)

[6] = Heavy metal removal ability test in contaminated soil (ICP-MS), nickel; details: for Nickel (Ni) Adsorption amount: contaminated soil; for Nickel (Ni) Adsorption rate: relative to EDTA control
Protocol: as §1, §2, §3, §4, §5, §6

SMILES	Arsenic (As) Adsorption amount ([1]; content 0.5% aqueous solution)	Arsenic (As) Adsorption rate ([1]; content 0.5%)	Arsenic (As) Adsorption amount ([1]; content 1.0% aqueous solution)	Arsenic (As) Adsorption rate ([1]; content 1.0%)	Arsenic (As) Adsorption amount ([1]; content 2.0% aqueous solution)	Arsenic (As) Adsorption rate ([1]; content 2.0%)	Total amount (Cu, Zn, Mn, Ni, Cd) [2]	Cadmium (Cd) Adsorption amount ([3]; content 0.5% aqueous solution)	Cadmium (Cd) Adsorption rate ([3]; content 0.5%)	Cadmium (Cd) Adsorption amount ([3]; content 1.0% aqueous solution)	Cadmium (Cd) Adsorption rate ([3]; content 1.0%)	Cadmium (Cd) Adsorption amount ([3]; content 2.0% aqueous solution)	Cadmium (Cd) Adsorption rate ([3]; content 2.0%)	Formaldehyde GC Area, 30 min [4]	Formaldehyde GC Area, 180 min [4]	Formaldehyde GC Area, Initial [4]	Test result (number of subject) (+) ([5]; content 0.1 wt %)	Test result (number of subject) (++) ([5]; content 0.1 wt %)	Test result (number of subject) (±) ([5]; content 0.1 wt %)	Test result (number of subject) (−) ([5]; content 0.1 wt %)	other results
O=C(O)c1ccc(N2CCN(c3ccc(C(=O)O)o3)CCN(c3ccc(C(=O)O)o3)CCN(c3ccc(C(=O)O)o3)CC2)o1 [Embodiment 8, 5,5′,5″,5′″-(1,4,7,10-tetraazacyclododecane-1,4,7,10-tetrayl)tetrakis(furan-2-carboxylic Acid)]	39 ppm	156%	47 ppm	188%	49 ppm	196%	≤5 ppm	61 ppm	149%	64 ppm	156%	71 ppm	173%	0.168 mAU*min	0 mAU*min	0.305 mAU*min	0	0	0	20	Degree of irritation ([5]; content 0.1 wt %): 0; Grade for skin irritation ([5]; content 0.1 wt %): I (Degree of irritation 0-0.1: Grade I (unstimulated)); Test result (number of subject) (+) ([5]; content 0.5 wt %): 0; Test result (number of subject) (++) ([5]; content 0.5 wt %): 0; Test result (number of subject) (±) ([5]; content 0.5 wt %): 0; Test result (number of subject) (−) ([5]; content 0.5 wt %): 20; Degree of irritation ([5]; content 0.5 wt %): 0; Grade for skin irritation ([5]; content 0.5 wt %): I (Degree of irritation 0-0.1: Grade I (unstimulated)); Test result (number of subject) (+) ([5]; content 1.0 wt %): 0; Test result (number of subject) (++) ([5]; content 1.0 wt %): 0; Test result (number of subject) (±) ([5]; content 1.0 wt %): 2; Test result (number of subject) (−) ([5]; content 1.0 wt %): 18; Degree of irritation ([5]; content 1.0 wt %): 0.10; Grade for skin irritation ([5]; content 1.0 wt %): I (Degree of irritation 0-0.1: Grade I (unstimulated)); Nickel (Ni) Adsorption amount ([6]; content 0.5% aqueous solution): 86 ppm; Nickel (Ni) Adsorption rate ([6]; content 0.5%): 176%; Nickel (Ni) Adsorption amount ([6]; content 1.0% aqueous solution): 96 ppm; Nickel (Ni) Adsorption rate ([6]; content 1.0%): 196%; Nickel (Ni) Adsorption amount ([6]; content 2.0% aqueous solution): 99 ppm; Nickel (Ni) Adsorption rate ([6]; content 2.0%): 202%
O=C(O)CN(CCN(CCN(CC(=O)O)CC(=O)O)CC(=O)O)CCN(CC(=O)O)CC(=O)O [Embodiment 1, 3,6,9,12-tetrakis(carboxymethyl)-3,6,9,12-tetraazatetradecanedioic Acid]	48 ppm	192%	50 ppm	200%	53 ppm	212%	≤5 ppm	74 ppm	180%	79 ppm	193%	84 ppm	205%	0.170 mAU*min	0 mAU*min	0.305 mAU*min	0	0	0	20	Degree of irritation ([5]; content 0.1 wt %): 0; Grade for skin irritation ([5]; content 0.1 wt %): I (Degree of irritation 0-0.1: Grade I (unstimulated)); Test result (number of subject) (+) ([5]; content 0.5 wt %): 0; Test result (number of subject) (++) ([5]; content 0.5 wt %): 0; Test result (number of subject) (±) ([5]; content 0.5 wt %): 1; Test result (number of subject) (−) ([5]; content 0.5 wt %): 19; Degree of irritation ([5]; content 0.5 wt %): 0.05; Grade for skin irritation ([5]; content 0.5 wt %): I (Degree of irritation 0-0.1: Grade I (unstimulated)); Test result (number of subject) (+) ([5]; content 1.0 wt %): 0; Test result (number of subject) (++) ([5]; content 1.0 wt %): 0; Test result (number of subject) (±) ([5]; content 1.0 wt %): 4; Test result (number of subject) (−) ([5]; content 1.0 wt %): 16; Degree of irritation ([5]; content 1.0 wt %): 0.20; Grade for skin irritation ([5]; content 1.0 wt %): II (Degree of irritation 0.11-0.3: Grade II (weakly stimulated)); Nickel (Ni) Adsorption amount ([6]; content 0.5% aqueous solution): 91 ppm; Nickel (Ni) Adsorption rate ([6]; content 0.5%): 186%; Nickel (Ni) Adsorption amount ([6]; content 1.0% aqueous solution): 101 ppm; Nickel (Ni) Adsorption rate ([6]; content 1.0%): 206%; Nickel (Ni) Adsorption amount ([6]; content 2.0% aqueous solution): 112 ppm; Nickel (Ni) Adsorption rate ([6]; content 2.0%): 229%

Source: patent US20210207064A1, “COMPOUND FOR RESTORING CONTAMINATED SOIL OR CONTAMINATED WATER” (FNG RESEARCH CO., LTD., priority 2018, published 2021)
